The values that follow come from patent US20140243302A1, “BRIDGED BICYCLIC COMPOUNDS FOR THE TREATMENT OF BACTERIAL INFECTIONS” (priority 2011, published 2014).

SMILES strings stand for the structures. In brackets after ≈: the same amount, converted by molar mass. Counter-ions that a name gives are not always drawn.

The test system of this assay is Staphylococcus aureus Smith. The assay is described as follows: MIC assay, modified agar dilution (CLSI), S. aureus Smith. In kind it is cell-based. Particulars: agar dilution, 35° C., 16-20 hr, lowest concentration that completely inhibited growth; for MIC: Staphylococcus aureus, read-out: S_aureus_Smith_WT_MIC. In outline:
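Strains were spotted at about 1×10^4 CFU onto compound-containing Mueller Hinton agar (two-fold series, 128-0.001 μg/mL), horse blood 5% added for pneumococcus and enterococcus. MIC read after 16-20 hr at 35 °C, following a modified CLSI agar dilution method.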
For orientation: In agar dilution, organisms are placed on agar that contains the substance at set levels.

With `COc1cc(OC)c2nccc(CCC34CCC(NCc5ccc6c(n5)NC(=O)CO6)(CC3)CO4)c2n1` [Example 150, 6-((1-(2-(6,8-Dimethoxy-1,5-naphthyridin-4-yl)ethyl)-2-oxabicyclo[2.2.2]octan-4-ylamino)methyl)-2H-pyrido[3,2-b][1,4]oxazin-3(4H)-one], the MIC was determined as 0.5 µg/mL (≈ 0.989 µM). On the same count and under the same terms, the same measure for `N#Cc1ccc2c(c1)N(CCC13CCC(NCc4ccc5c(n4)NC(=O)CO5)(CC1)CO3)C(=O)CO2` [Example 202, 1-(2-(6-Cyano-3-oxo-2H-benzo[b][1,4]oxazin-4(3H)-yl)ethyl)-N-((3-oxo-3,4-dihydro-2H-pyrido[3,2-b][1,4]oxazin-6-yl)methyl)-2-oxabicyclo[2.2.2]octan-4-aminium chloride]: 0.25 µg/mL. Take `COc1ccc2ncc(F)c(C[C@H](O)C34CCC(NCc5ccc6c(c5)NC(=O)CS6)(CC3)CO4)c2n1.Cl` [Example 204, (S)-1-(2-(3-Fluoro-6-methoxy-1,5-naphthyridin-4-yl)-1-hydroxyethyl)-N-((3-oxo-3,4-dihydro-2H-benzo[b][1,4]thiazin-6-yl)methyl)-2-oxabicyclo[2.2.2]octan-4-aminium chloride]: the MIC was found to be 0.06 µg/mL. The same measure, in the same setting: the same measure for `COc1ccc2ncc(F)c(CCC34CCC(NCc5cc6c(cn5)OCC(=O)N6)(CC3)CO4)c2n1` [Example 96, 7-(((1-(2-(3-Fluoro-6-methoxy-1,5-naphthyridin-4-yl)ethyl)-2-oxabicyclo[2.2.2]octan-4-yl)amino)methyl)-1H-pyrido[3,4-b][1,4]oxazin-2(3H)-one]: 0.031 µg/mL (≈ 0.0628 µM); for `COc1ccc2ccc(=O)n(CCC34CCC(NCc5ccc6c(n5)NC(=O)CO6)(CC3)CO4)c2n1.Cl` [Example 131, 6-((1-(2-(7-Methoxy-2-oxo-1,8-naphthyridin-1(2H)-yl)ethyl)-2-oxabicyclo[2.2.2]octan-4-ylamino)methyl)-2H-pyrido[3,2-b][1,4]oxazin-3(4H)-one Hydrochloride]: 0.016 µg/mL; for `COc1ccc2ncc(F)c(CCC34CCC(NCc5ccc(N6CCCC6)nc5)(CC3)CO4)c2n1` [Example 82, 1-(2-(3-Fluoro-6-methoxy-1,5-naphthyridin-4-yl)ethyl)-N-((6-(pyrrolidin-1-yl)pyridin-3-yl)methyl)-2-oxabicyclo[2.2.2]octan-4-amine]: 0.25 µg/mL (≈ 0.509 µM). With `COc1ccc2ncc(F)c(C(CC34CCC(NCc5ccc6c(n5)NC(=O)CO6)(CC3)CO4)C(=O)[O-])c2n1.[Na+]` (stereo not shown) [Example 195, Sodium 2-(3-fluoro-6-methoxy-1,5-naphthyridin-4-yl)-3-(4-(((3-oxo-3,4-dihydro-2H-pyrido[3,2-b][1,4]oxazin-6-yl)methyl)amino)-2-oxabicyclo[2.2.2]octan-1-yl)propanoate], the MIC was 1 µg/mL. Take `COc1ccc2ncc(F)c(CCC34CCC(NCc5cc6c(nn5)OCC(=O)N6)(CC3)CO4)c2n1` [Example 177, 3-[({1-[2-(3-Fluoro-6-methoxy-1,5-naphthyridin-4-yl)ethyl]-2-oxabicyclo[2.2.2]oct-4-yl}amino)methyl]-5H-pyridazino [3,4-b][1,4]oxazin-6(7H)-one]: the MIC came out at 1 µg/mL (≈ 2.02 µM). `COc1ccc2ncc(F)c(CCC34CCC(NCc5ccc6c(n5)NC(=O)C(C)O6)(CC3)CO4)c2n1.Cl` (single isomer, unassigned) [Example 100b, 6-((1-(2-(3-Fluoro-6-methoxy-1,5-naphthyridin-4-yl)ethyl)-2-oxabicyclo[2.2.2]octan-4-ylamino)methyl)-2-methyl-2H-pyrido[3,2-b][1,4]oxazin-3(4H)-one Hydrochloride] came in with a S_aureus_Smith_WT_MIC (Hydrochloride) of 0.0630 µg/mL. Where the note is “Dihydrochloride”, `COc1ccc2ncc(F)c(CC(N)C34CCC(NCc5ccc6c(n5)NC(=O)CO6)(CC3)CO4)c2n1` (single isomer, unassigned) [Example 21b, 6-((1-(1-Amino-2-(3-fluoro-6-methoxy-1,5-naphthyridin-4-yl)ethyl)-2-oxabicyclo[2.2.2]octan-4-ylamino)methyl)-2H-pyrido[3,2-b][1,4]oxazin-3(4H)-one Dihydrochloride] displayed a S_aureus_Smith_WT_MIC of 0.125 µg/mL. Take `Cc1nnc2c(=O)n(CCC34CCC(NCc5ccc6c(n5)NC(=O)CO6)(CC3)CO4)c3ccccc3n12` [Example 117, 6-((1-(2-(1-Methyl-4-oxo-[1,2,4]triazolo[4,3-a]quinoxalin-5(4H)-yl)ethyl)-2-oxabicyclo[2.2.2]octan-4-ylamino)methyl)-2H-pyrido[3,2-b][1,4]oxazin-3(4H)-one]: the MIC worked out at 64 µg/mL (≈ 124 µM). On the same count and under the same terms, the same measure for `COc1ccc2ncc(F)c(CCC34CCC(NCc5cc(Cl)c6c(c5)OCO6)(CC3)CO4)c2n1` [Example 72, N-((7-Chlorobenzo[d][1,3]dioxol-5-yl)methyl)-1-(2-(3-fluoro-6-methoxy-1,5-naphthyridin-4-yl)ethyl)-2-oxabicyclo[2.2.2]octan-4-amine]: 0.125 µg/mL (≈ 0.25 µM).

On to `COc1ccc2ncc(F)c(C3OC(=O)OC3C34CCC(NCc5ccc6c(n5)NC(=O)CO6)(CC3)CO4)c2n1.Cl` (single isomer, unassigned) [Example 27a, 6-((1-(5-(3-Fluoro-6-methoxy-1,5-naphthyridin-4-yl)-2-oxo-1,3-dioxolan-4-yl)-2-oxabicyclo[2.2.2]octan-4-ylamino)methyl)-2H-pyrido[3,2-b][1,4]oxazin-3(4H)-one Hydrochloride], for which the S_aureus_Smith_WT_MIC (Hydrochloride) came out at 0.250 µg/mL. As for `COc1ccc2ncc(F)c(CC(O)C34CCC(NCc5cc6c(cn5)OCC(=O)N6)(CC3)CO4)c2n1` (stereo not shown) [Example 149, 7-((1-(2-(3-Fluoro-6-methoxy-1,5-naphthyridin-4-yl)-1-hydroxyethyl)-2-oxabicyclo[2.2.2]octan-4-ylamino)methyl)-1H-pyrido[3,4-b][1,4]oxazin-2(3H)-one], the MIC worked out at 0.063 µg/mL (≈ 0.124 µM). Same read-out and setting: the same measure for `COc1ccc2ncc(C#N)c(CCC34CCC(NCc5ccc6c(n5)NC(=O)CO6)(CC3)CO4)c2n1` [Example 44, 6-Methoxy-4-(2-(4-((3-oxo-3,4-dihydro-2H-pyrido[3,2-b][1,4]oxazin-6-yl)methylamino)-2-oxabicyclo[2.2.2]octan-1-yl)ethyl)-1,5-naphthyridine-3-carbonitrile]: 0.016 µg/mL (≈ 0.032 µM). Consider `O=C1COc2ccc(CNC34CCC(CCc5c(Cl)cnc6ccc(O)nc56)(CC3)CC4)nc2N1` [Example 9, 6-((4-(2-(3-Chloro-6-hydroxy-1,5-naphthyridin-4-yl)ethyl)bicyclo[2.2.2]octan-1-ylamino)methyl)-2H-pyrido[3,2-b][1,4]oxazin-3(4H)-one], for which the MIC stood at 0.125 µg/mL (≈ 0.253 µM). Regarding `COc1ccc2ncc(F)c(CC(O)C34CCC(NCc5cc6[nH]c(=O)cnc6cn5)(CC3)CO4)c2n1` (stereo not shown) [Example 182, 7-[({1-[2-(3-Fluoro-6-methoxy-1,5-naphthyridin-4-yl)-1-hydroxyethyl]-2-oxabicyclo[2.2.2]oct-4-yl}amino)methyl]pyrido[3,4-b]pyrazin-2(1H)-one], the MIC was 4 µg/mL (≈ 7.9 µM). Still for that read-out and setting: the same measure for `COC(=O)c1cnc2ccc(=O)n(CCC34CCC(NCc5ccc6c(n5)NC(=O)CO6)(CC3)CO4)c2c1.Cl` [Example 127, Methyl 6-Oxo-5-(2-(4-((3-oxo-3,4-dihydro-2H-pyrido[3,2-b][1,4]oxazin-6-yl)methylamino)-2-oxabicyclo[2.2.2]octan-1-yl)ethyl)-5,6-dihydro-1,5-naphthyridine-3-carboxylate Hydrochloride]: 0.25 µg/mL; for `NCCOc1ccc2ncc(F)c(CCC34CCC(NCc5ccc6c(n5)NC(=O)CO6)(CC3)CO4)c2n1` [Example 40, 6-((1-(2-(6-(2-Aminoethoxy)-3-fluoro-1,5-naphthyridin-4-yl)ethyl)-2-oxabicyclo[2.2.2]octan-4-ylamino)methyl)-2H-pyrido[3,2-b][1,4]oxazin-3(4H)-one]: 0.25 µg/mL (≈ 0.478 µM). Consider `CC(O)CCOc1ccc2ncc(F)c(CCC34CCC(NCc5ccc6c(n5)NC(=O)CO6)(CC3)CO4)c2n1` (stereo not shown) [Example 181, 6-{[(1-{2-[3-Fluoro-6-(3-hydroxybutoxy)-1,5-naphthyridin-4-yl]ethyl}-2-oxabicyclo[2.2.2]oct-4-yl)amino]methyl}-2H-pyrido[3,2-b][1,4]oxazin-3(4H)-one], for which the MIC turned out to be 0.125 µg/mL (≈ 0.227 µM). The same measure, in the same setting: the same measure for `COc1ccc2ncc(F)c(CCC34CCC(NCc5cc6c(cc5F)OCO6)(CC3)CO4)c2n1.Cl` [Example 87, 1-(2-(3-Fluoro-6-methoxy-1,5-naphthyridin-4-yl)ethyl)-N-((6-fluorobenzo[d][1,3]dioxol-5-yl)methyl)-2-oxabicyclo[2.2.2]octan-4-amine Hydrochloride]: 0.063 µg/mL; for `COc1ccc2ncc(F)c(CCC34CCC(NCc5cnn(CC(F)F)c5)(CC3)CO4)c2n1` [Example 92, N-((1-(2,2-Difluoroethyl)-1H-pyrazol-4-yl)methyl)-1-(2-(3-fluoro-6-methoxy-1,5-naphthyridin-4-yl)ethyl)-2-oxabicyclo[2.2.2]octan-4-amine]: 0.125 µg/mL (≈ 0.263 µM); for `N[C@@H]1CO[C@H]1COc1ccc2ncc(F)c(CCC34CCC(NCc5ccc6c(n5)NC(=O)CO6)(CC3)CO4)c2n1` [Example 185, 6-((1-(2-(6-(((2R,3R)-3-Aminooxetan-2-yl)methoxy)-3-fluoro-1,5-naphthyridin-4-yl)ethyl)-2-oxabicyclo[2.2.2]octan-4-ylamino)methyl)-2H-pyrido[3,2-b][1,4]oxazin-3(4H)-one]: 0.125 µg/mL (≈ 0.221 µM). On the same count and under the same terms, the same measure for `COc1cc2c(CCC34CCC(NCc5ccc6c(n5)NC(=O)CO6)(CC3)CO4)c(F)cnc2cc1F` [Example 141, 6-[({1-[2-(3,7-Difluoro-6-methoxyquinolin-4-yl)ethyl]-2-oxabicyclo[2.2.2]oct-4-yl}amino)methyl]-2H-pyrido[3,2-b][1,4]oxazin-3(4H)-one]: 0.063 µg/mL (≈ 0.123 µM); for `COc1ccc2ncc(F)c(CCC34CCC(NCc5ccc(OC(F)F)c(OC)c5)(CC3)CO4)c2n1` [Example 95, N-(4-(Difluoromethoxy)-3-methoxybenzyl)-1-(2-(3-fluoro-6-methoxy-1,5-naphthyridin-4-yl)ethyl)-2-oxabicyclo[2.2.2]octan-4-amine]: 0.5 µg/mL (≈ 0.966 µM).
